According to ChEMBL document CHEMBL1201862, “PubChem BioAssay data set” (2004):
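Dose response: 5 concentrations. Exposure: 48 h. Format: 96-well plates. Endpoint: linear interpolation; highest concentration if not reached. GI50: concentration for 50% inhibition of growth.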 Calls of active or inactive are those of the source. No stated cut-off is given here; in the data, active = GI50 up to about 1.1 µM and inactive = higher.

Legend:
Experiment in all cases: DTP human tumour cell line panel, 48 h
[1] = test system: 786-0
[2] = test system: ACHN
[3] = test system: CAKI-1
[4] = test system: HCT-116
[5] = test system: HT-29
[6] = test system: K562
[7] = test system: KM12
[8] = test system: MCF7
[9] = test system: MOLT-4
[10] = test system: OVCAR-4
[11] = test system: OVCAR-5
[12] = test system: PC-3
[13] = test system: SF-539
[14] = test system: SK-MEL-28
[15] = test system: SK-MEL-2
[16] = test system: SN12C
[17] = test system: SNB-19
[18] = test system: SW-620
[19] = test system: U-251
[20] = test system: NCI/ADR-RES

Row | SMILES | GI50 [1] | GI50 [2] | GI50 [3] | GI50 [4] | GI50 [5] | GI50 [6] | GI50 [7] | GI50 [8] | GI50 [9] | GI50 [10] | GI50 [11] | GI50 [12] | GI50 [13] | GI50 [14] | GI50 [15] | GI50 [16] | GI50 [17] | GI50 [18] | GI50 [19] | GI50 [20]
1 | COc1cc(C2=N/C(=C/c3cccs3)C(=O)O2)cc(OC)c1OC | > 100 µM (inactive) | > 100 µM (inactive) | > 100 µM (inactive) | > 100 µM (inactive) | > 100 µM (inactive) | > 100 µM (inactive) | > 100 µM (inactive) | > 100 µM (inactive) | > 100 µM (inactive) | > 100 µM (inactive) | > 100 µM (inactive) | > 100 µM (inactive) | > 100 µM (inactive) | > 100 µM (inactive) | > 100 µM (inactive) | > 100 µM (inactive) | > 100 µM (inactive) | > 100 µM (inactive) | > 100 µM (inactive) | –
2 | Nc1ccc(/N=N/c2c(S(=O)(=O)O)cc3ccccc3c2S(=O)(=O)O)cc1 | > 100 µM (inactive) | > 100 µM (inactive) | > 100 µM (inactive) | > 100 µM (inactive) | > 100 µM (inactive) | > 100 µM (inactive) | > 100 µM (inactive) | – | > 100 µM (inactive) | > 100 µM (inactive) | > 100 µM (inactive) | > 100 µM (inactive) | – | > 100 µM (inactive) | > 100 µM (inactive) | > 100 µM (inactive) | > 100 µM (inactive) | > 100 µM (inactive) | > 100 µM (inactive) | > 100 µM (inactive)
3 | CSc1ccc(/C=C2\CNC/C(=C\c3ccc(SC)cc3)C2=O)cc1 | 29.3 µM (inactive) | 120 µM (inactive) | – | 144 µM (inactive) | – | > 371 µM (inactive) | – | – | – | – | > 284 µM (inactive) | > 100 µM (inactive) | 18.4 µM (inactive) | > 209 µM (inactive) | > 194 µM (inactive) | > 139 µM (inactive) | 26.7 µM (inactive) | > 371 µM (inactive) | 16.9 µM (inactive) | –
4 | NC(=S)N/N=C1\CCCCc2ccccc21 | > 10 µM (inactive) | > 10 µM (inactive) | > 10 µM (inactive) | > 10 µM (inactive) | > 10 µM (inactive) | > 10 µM (inactive) | > 10 µM (inactive) | > 10 µM (inactive) | > 10 µM (inactive) | > 10 µM (inactive) | > 10 µM (inactive) | > 10 µM (inactive) | – | – | > 10 µM (inactive) | > 10 µM (inactive) | > 10 µM (inactive) | > 10 µM (inactive) | > 10 µM (inactive) | > 10 µM (inactive)
5 | CCOC(=O)NC1CN2CCC1CC2 (centres undefined) | > 100 µM (inactive) | > 100 µM (inactive) | > 100 µM (inactive) | > 100 µM (inactive) | > 100 µM (inactive) | > 100 µM (inactive) | > 100 µM (inactive) | – | > 100 µM (inactive) | > 100 µM (inactive) | > 100 µM (inactive) | > 100 µM (inactive) | > 100 µM (inactive) | > 100 µM (inactive) | > 100 µM (inactive) | > 100 µM (inactive) | > 100 µM (inactive) | > 100 µM (inactive) | > 100 µM (inactive) | > 100 µM (inactive)
6 | Cc1nc2c(sc(=S)n2-c2ccccc2)c2nc3ncccc3n12 | 35.2 µM (inactive) | > 100 µM (inactive) | > 100 µM (inactive) | > 100 µM (inactive) | > 100 µM (inactive) | > 100 µM (inactive) | > 100 µM (inactive) | > 100 µM (inactive) | > 100 µM (inactive) | – | > 100 µM (inactive) | > 100 µM (inactive) | – | > 100 µM (inactive) | 65.8 µM (inactive) | 46.2 µM (inactive) | 54.5 µM (inactive) | > 100 µM (inactive) | 32.6 µM (inactive) | > 100 µM (inactive)
7 | COc1cc(N(CCC#N)CCC#N)ccc1/C=N\NC(=O)c1ccc(C)cc1 | > 100 µM (inactive) | > 100 µM (inactive) | > 100 µM (inactive) | > 100 µM (inactive) | > 100 µM (inactive) | > 100 µM (inactive) | > 100 µM (inactive) | – | > 100 µM (inactive) | > 100 µM (inactive) | > 100 µM (inactive) | 17.3 µM (inactive) | > 100 µM (inactive) | > 100 µM (inactive) | 17.3 µM (inactive) | > 100 µM (inactive) | > 100 µM (inactive) | > 100 µM (inactive) | 16.4 µM (inactive) | > 100 µM (inactive)
8 | O=C1C=Cc2c(I)sc(I)c21 | 10.3 µM (inactive) | 36.6 µM (inactive) | 18.7 µM (inactive) | 15.7 µM (inactive) | 23.9 µM (inactive) | 14.3 µM (inactive) | 20 µM (inactive) | 18.4 µM (inactive) | 12 µM (inactive) | 20 µM (inactive) | 25.1 µM (inactive) | – | 25.6 µM (inactive) | 19.8 µM (inactive) | 20.1 µM (inactive) | 19.5 µM (inactive) | – | 13.4 µM (inactive) | 17 µM (inactive) | 23.3 µM (inactive)
9 | O=C1C=CC(=O)c2c1ccc1c3ccccc3n(-c3ccccc3)c21 | 4.86 µM (inactive) | 3.26 µM (inactive) | 7.18 µM (inactive) | 2.37 µM (inactive) | 15.8 µM (inactive) | 0.986 µM (active) | 17.9 µM (inactive) | 2.11 µM (inactive) | 0.561 µM (active) | 13.9 µM (inactive) | 17.1 µM (inactive) | 13.6 µM (inactive) | 15.7 µM (inactive) | 3.34 µM (inactive) | 13.1 µM (inactive) | 11.5 µM (inactive) | 19.5 µM (inactive) | 2.29 µM (inactive) | 15.2 µM (inactive) | –
10 | [N-]=[N+]=NC(c1cn(C2CC(O)C(CO)O2)c(=O)[nH]c1=O)C(Cl)I (centres undefined) | > 100 µM (inactive) | > 100 µM (inactive) | – | > 100 µM (inactive) | > 100 µM (inactive) | – | > 100 µM (inactive) | > 100 µM (inactive) | > 100 µM (inactive) | > 100 µM (inactive) | > 100 µM (inactive) | – | > 100 µM (inactive) | > 100 µM (inactive) | > 100 µM (inactive) | > 100 µM (inactive) | > 100 µM (inactive) | > 100 µM (inactive) | > 100 µM (inactive) | > 100 µM (inactive)
11 | COc1ccccc1NC(=O)C1=C(C)NC(C)=C(C(=O)Nc2ccccc2OC)C1c1ccc(C2C(C(=O)Nc3ccccc3OC)=C(C)NC(C)=C2C(=O)Nc2ccccc2OC)cc1 | 1.78 µM (inactive) | 2.88 µM (inactive) | 3.13 µM (inactive) | 1.3 µM (inactive) | 1.71 µM (inactive) | 2.18 µM (inactive) | 1.64 µM (inactive) | – | 1.19 µM (inactive) | 3.94 µM (inactive) | 3.22 µM (inactive) | – | 1.68 µM (inactive) | 2.44 µM (inactive) | 2.08 µM (inactive) | 1.79 µM (inactive) | 3.89 µM (inactive) | 1.86 µM (inactive) | 2.52 µM (inactive) | –
12 | Cc1ccc([N+](=O)[O-])cc1S(=O)(=O)Nc1ccc(C2=NN(S(=O)(=O)c3cc([N+](=O)[O-])ccc3C)C(c3ccccc3)C2)cc1 (centres undefined) | 39.5 µM (inactive) | 31.8 µM (inactive) | 35.8 µM (inactive) | 18.5 µM (inactive) | 33.5 µM (inactive) | 30.1 µM (inactive) | 34.9 µM (inactive) | 30.8 µM (inactive) | 30 µM (inactive) | 33.9 µM (inactive) | 51.2 µM (inactive) | 26.9 µM (inactive) | – | 82.8 µM (inactive) | 22.6 µM (inactive) | 28.2 µM (inactive) | 36.4 µM (inactive) | 50.5 µM (inactive) | 29.8 µM (inactive) | 25.5 µM (inactive)
13 | CCOC(=O)CC1C(C(=O)OCC)=Cn2c([nH]c3cccc4cccc2c43)=C1C(=O)OCC (centres undefined) | > 100 µM (inactive) | > 100 µM (inactive) | > 100 µM (inactive) | > 100 µM (inactive) | > 100 µM (inactive) | > 100 µM (inactive) | > 100 µM (inactive) | > 100 µM (inactive) | > 100 µM (inactive) | > 100 µM (inactive) | > 100 µM (inactive) | 91 µM (inactive) | – | > 100 µM (inactive) | > 100 µM (inactive) | > 100 µM (inactive) | > 100 µM (inactive) | > 100 µM (inactive) | > 100 µM (inactive) | > 100 µM (inactive)
14 | CC(=O)OCCOCn1c2c(c(=S)[nH]c1=O)CCC2 | 93.8 µM (inactive) | > 100 µM (inactive) | > 100 µM (inactive) | > 100 µM (inactive) | > 100 µM (inactive) | > 100 µM (inactive) | > 100 µM (inactive) | > 100 µM (inactive) | > 100 µM (inactive) | > 100 µM (inactive) | > 100 µM (inactive) | > 100 µM (inactive) | > 100 µM (inactive) | > 100 µM (inactive) | > 100 µM (inactive) | > 100 µM (inactive) | > 100 µM (inactive) | > 100 µM (inactive) | > 100 µM (inactive) | –
15 | CN(C(=O)/C=C/c1ccccc1)C1C2CN3CCC(O2)C13 (centres undefined) | > 100 µM (inactive) | > 100 µM (inactive) | > 100 µM (inactive) | > 100 µM (inactive) | > 100 µM (inactive) | > 100 µM (inactive) | > 100 µM (inactive) | – | > 100 µM (inactive) | > 100 µM (inactive) | > 100 µM (inactive) | – | > 100 µM (inactive) | > 100 µM (inactive) | > 100 µM (inactive) | > 100 µM (inactive) | > 100 µM (inactive) | > 100 µM (inactive) | > 100 µM (inactive) | –
